Laboratory results taken from patent US12522594B2, “2-heteroaryl-3-oxo-2,3-dihydropyridazine-4-carboxamides for the treatment of cancer” (Deutsches Krebsforschungszentrum, priority 2017, dated 2026).

Experiments:
AHR [1] = target: T1, AHR (Homo sapiens, UniProt P35869); assay: In vitro assay 2: agonism in human cell line (transactivation assay, U87 cells, DRE firefly luciferase reporter); assay type: cell-based; set-up: host or cells: U87 glioblastoma cells, stably transfected with DRE firefly luciferase and renilla reporter constructs; settings: no kynurenic acid, 20 hours, read-out: Assay 2: AHR-luc Hum Agonism IC50
T1 sequence (P35869 11-848): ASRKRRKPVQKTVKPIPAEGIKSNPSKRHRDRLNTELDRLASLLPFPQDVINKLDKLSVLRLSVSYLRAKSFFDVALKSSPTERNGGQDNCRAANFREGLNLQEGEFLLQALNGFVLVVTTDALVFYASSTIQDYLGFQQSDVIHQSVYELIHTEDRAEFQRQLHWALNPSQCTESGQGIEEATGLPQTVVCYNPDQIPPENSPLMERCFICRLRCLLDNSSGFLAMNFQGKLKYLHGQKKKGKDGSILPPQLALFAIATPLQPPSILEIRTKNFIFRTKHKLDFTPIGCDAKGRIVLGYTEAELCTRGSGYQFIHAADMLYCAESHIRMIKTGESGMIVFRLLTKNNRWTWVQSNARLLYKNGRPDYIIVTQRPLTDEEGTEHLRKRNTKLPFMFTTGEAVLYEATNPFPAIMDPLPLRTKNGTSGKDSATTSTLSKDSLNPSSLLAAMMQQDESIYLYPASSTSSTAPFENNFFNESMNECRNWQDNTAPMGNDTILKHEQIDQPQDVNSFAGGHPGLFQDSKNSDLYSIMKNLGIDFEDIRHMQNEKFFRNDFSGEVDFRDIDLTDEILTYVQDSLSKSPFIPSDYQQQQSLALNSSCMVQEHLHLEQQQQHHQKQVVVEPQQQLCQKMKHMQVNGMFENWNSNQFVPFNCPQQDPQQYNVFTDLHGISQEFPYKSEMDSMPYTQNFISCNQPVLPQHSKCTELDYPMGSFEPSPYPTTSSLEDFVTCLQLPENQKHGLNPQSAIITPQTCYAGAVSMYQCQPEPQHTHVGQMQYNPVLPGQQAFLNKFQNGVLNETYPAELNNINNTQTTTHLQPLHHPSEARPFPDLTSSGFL
Procedure, shortened: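 Agonist readout: DRE firefly luciferase, with constitutive renilla reporter, in stably transfected U87 cells expressing AHR endogenously. Normalization used positive control (300 uM kynurenic acid) and negative control.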

AHR [2] = target: T1, AHR; assay: In vitro assay 1: antagonism in human cell line (transactivation assay, U87 cells prestimulated with kynurenic acid, DRE firefly luciferase reporter); assay type: cell-based; set-up: host or cells: U87 glioblastoma cells, stably transfected with DRE firefly luciferase and renilla reporter constructs; settings: 150 uM kynurenic acid, 20 hours, read-out: Assay 1: AHR-luc Hum Antagonism IC50
Procedure, shortened: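 Antagonism measured after kynurenic acid prestimulation in U87 cells that express AHR endogenously and stably harbor a firefly luciferase gene under DRE control plus a constitutive renilla construct. Positive and negative controls served for normalization.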

| SMILES | IC50 (AHR [1]) | IC50 (AHR [2]) |
| --- | --- | --- |
| Cn1cc(-n2nc(-c3ccc(Cl)cc3)cc(C(=O)N[C@@H](CO)C(F)(F)F)c2=O)cn1 [Example 34, (−)-6-(4-Chlorophenyl)-2-(1-methyl-1H-pyrazol-4-yl)-3-oxo-N-[(2S)-1,1,1-trifluoro-3-hydroxypropan-2-yl]-2,3-dihydropyridazine-4-carboxamide] | > 20000 nM | 130 nM |
| CC(C)(O)CNC(=O)c1cc(-c2ccc(C(F)(F)F)cc2)nn(-c2cnsc2)c1=O [Example 208, N-(2-Hydroxy-2-methylpropyl)-3-oxo-2-(1,2-thiazol-4-yl)-6-[4-(trifluoromethyl)phenyl]-2,3-dihydropyridazine-4-carboxamide] | > 20000 nM | 1.22 nM |
| O=C(N[C@H]1CCCC(F)(F)[C@@H]1O)c1cc(-c2ccc(OC(F)(F)F)cc2)nn(-c2cccnc2)c1=O (single isomer, unassigned; enantiomer 1) [Example 141, N-[(trans)-3,3-Difluoro-2-hydroxycyclohexyl]-3-oxo-2-(pyridin-3-yl)-6-[4-(trifluoromethoxy)phenyl]-2,3-dihydropyridazine-4-carboxamide, Enantiomer 1] | > 20000 nM | 148 nM |
| O=C(N[C@@H]1CC[C@@H]1O)c1cc(-c2ccc(C(F)(F)F)cc2)nn(-c2cccnc2)c1=O (single isomer, unassigned) [Example 268, (−)-N-cis-2-Hydroxycyclo-butyl-3-oxo-2-(pyridin-3-yl)-6-[4-(trifluoromethyl)phenyl]-2,3-dihydropyridazine-4-carboxamide] | > 20000 nM | 56.9 nM |
| O=C(NCC1(O)CCC1)c1cc(-c2ccc(C(F)(F)F)cc2)nn(-c2cnsc2)c1=O [Example 195, N-[(1-Hydroxycyclobutyl)methyl]-3-oxo-2-(1,2-thiazol-4-yl)-6-[4-(trifluoromethyl)phenyl]-2,3-dihydropyridazine-4-carboxamide] | > 20000 nM | 0.363 nM |
| COC[C@H](CO)NC(=O)c1cc(-c2ccc(Cl)cc2)nn(-c2cncc(F)c2)c1=O [Example 86, 6-(4-Chlorophenyl)-2-(5-fluoropyridin-3-yl)-N-[(2S)-1-hydroxy-3-methoxypropan-2-yl]-3-oxo-2,3-dihydropyridazine-4-carboxamide] | > 20000 nM | 55.9 nM |
| O=C(N[C@H](CO)C(F)(F)F)c1cc(-c2ccc(Cl)cc2)nn(-c2cnn(C(F)F)c2)c1=O [Example 236, 6-(4-Chlorophenyl)-2-[1-(difluoromethyl)-1H-pyrazol-4-yl]-3-oxo-N-[(2R)-1,1,1-trifluoro-3-hydroxypropan-2-yl]-2,3-dihydropyridazine-4-carboxamide] | > 20000 nM | 9.03 nM |
| CCC(CO)NC(=O)c1cc(-c2ccc(C)cc2)nn(-c2cnn(C)c2)c1=O (single isomer, unassigned) [Example 6, N-(1-Hydroxybutan-2-yl)-6-(4-methylphenyl)-2-(1-methyl-1H-pyrazol-4-yl)-3-oxo-2,3-dihydropyridazine-4-carboxamide] | > 20000 nM | 181 nM |
| COC[C@@H](CO)NC(=O)c1cc(-c2ccc(Cl)cc2)nn(-c2cnn(C)c2)c1=O [Example 30, 6-(4-Chlorophenyl)-N-[(2R)-1-hydroxy-3-methoxypropan-2-yl]-2-(1-methyl-1H-pyrazol-4-yl)-3-oxo-2,3-dihydropyridazine-4-carboxamide] | > 20000 nM | 60.8 nM |
| Cn1cc(-n2nc(-c3ccc(Cl)cc3)cc(C(=O)NC(CO)C(F)(F)F)c2=O)cn1 (racemic) [Example 33, 6-(4-Chlorophenyl)-2-(1-methyl-1H-pyrazol-4-yl)-3-oxo-N-[(2RS)-1,1,1-trifluoro-3-hydroxypropan-2-yl]-2,3-dihydropyridazine-4-carboxamide] | > 20000 nM | 2.66 nM |
| C[C@H](CO)NC(=O)c1cc(-c2ccc(Cl)cc2)nn(-c2cncnc2)c1=O [Example 279, 6-(4-Chlorophenyl)-N-[(2R)-1-hydroxypropan-2-yl]-3-oxo-2-(pyrimidin-5-yl)-2,3-dihydropyridazine-4-carboxamide] | > 20000 nM | 168 nM |
| Cc1cc(-n2nc(-c3ccc(Cl)cc3)cc(C(=O)N[C@@H](C)CO)c2=O)cs1 [Example 242, 6-(4-Chlorophenyl)-N-[(2S)-1-hydroxypropan-2-yl]-2-(5-methyl-3-thienyl)-3-oxo-2,3-dihydropyridazine-4-carboxamide] | > 20000 nM | 11.1 nM |
| COC[C@H](CO)NC(=O)c1cc(-c2ccc(C(F)(F)F)cc2)nn(-c2cccnc2)c1=O [Example 111, N-[(2S)-1-Hydroxy-3-methoxypropan-2-yl]-3-oxo-2-(pyridin-3-yl)-6-[4-(trifluoromethyl)phenyl]-2,3-dihydropyridazine-4-carboxamide] | > 20000 nM | 26.5 nM |
| O=C(N[C@H]1COC[C@@H]1O)c1cc(-c2ccc(Cl)cc2)nn(-c2cncc(F)c2)c1=O (single isomer, unassigned; enantiomer 2) [Example 156, 6-(4-Chlorophenyl)-2-(5-fluoropyridin-3-yl)-N-[(trans)-4-hydroxytetrahydrofuran-3-yl]-3-oxo-2,3-dihydropyridazine-4-carboxamide, Enantiomer 2] | > 20000 nM | 25 nM |

Next, values leading:

| IC50 (AHR [1]) | IC50 (AHR [2]) | SMILES |
| --- | --- | --- |
| > 20000 nM | 24.1 nM | O=C(N[C@H]1CCC[C@H]1O)c1cc(-c2ccc(C(F)(F)F)nc2)nn(-c2cncc(F)c2)c1=O [Example 338, 2-(5-Fluoropyridin-3-yl)-N-[(1S,2R)-2-hydroxycyclopentyl]-3-oxo-6-[6-(trifluoromethyl)pyridin-3-yl]-2,3-dihydropyridazine-4-carboxamide] |
| > 20000 nM | 234 nM | CC(C)(O)CNC(=O)c1cc(-c2ccc(OC(F)F)cc2)nn(-c2cccnc2)c1=O [Example 331, 6-[4-(Difluoromethoxy)phenyl]-N-(2-hydroxy-2-methylpropyl)-3-oxo-2-(pyridin-3-yl)-2,3-dihydropyridazine-4-carboxamide] |
| > 20000 nM | 31 nM | O=C(N[C@@H]1COC[C@@H]1O)c1cc(-c2ccc(Cl)cc2)nn(-c2cncc(F)c2)c1=O (relative stereo) [Example 301, 6-(4-Chlorophenyl)-2-(5-fluoropyridin-3-yl)-N-[(cis)-4-hydroxytetrahydro-furan-3-yl]-3-oxo-2,3-dihydropyridazine-4-carboxamide] |
| > 20000 nM | 49.8 nM | C[C@@H](NC(=O)c1cc(-c2ccc(OC(F)(F)F)cc2)nn(-c2cccnc2)c1=O)C(C)(C)O [Example 294, N-[(2R)-3-Hydroxy-3-methylbutan-2-yl]-3-oxo-2-(pyridin-3-yl)-6-[4-(trifluoromethoxy)phenyl]-2,3-dihydropyridazine-4-carboxamide] |
| > 20000 nM | 81.5 nM | C[C@@H](NC(=O)c1cc(-c2ccc(Cl)cc2)nn(-c2cccnc2)c1=O)C(C)(C)O [Example 302, 6-(4-Chlorophenyl)-N-[(2R)-3-hydroxy-3-methylbutan-2-yl]-3-oxo-2-(pyridin-3-yl)-2,3-dihydropyridazine-4-carboxamide] |
| > 20000 nM | 27.6 nM | O=C(N[C@H](CO)C1CC1)c1cc(-c2ccc(C(F)(F)F)nc2)nn(-c2cncc(F)c2)c1=O [Example 339, N-[(1S)-1-Cyclopropyl-2-hydroxyethyl]-2-(5-fluoropyridin-3-yl)-3-oxo-6-[6-(trifluoromethyl)pyridin-3-yl]-2,3-dihydropyridazine-4-carboxamide] |
| > 20000 nM | 4.38 nM | O=C(N[C@@H]1CSC[C@@H]1O)c1cc(-c2ccc(C(F)(F)F)cc2)nn(-c2cccnc2)c1=O (single isomer, unassigned) [Example 291, (−)-N-cis-4-hydroxy-tetrahydrothiophen-3-yl-3-oxo-2-(pyridin-3-yl)-6-[4-(trifluoromethyl)phenyl]-2,3-dihydropyridazine-4-carboxamide] |
| > 20000 nM | 1.85 nM | C[C@H](NC(=O)c1cc(-c2ccc(OC(F)(F)F)cc2)nn(-c2cnsc2)c1=O)C(C)(C)O [Example 312, N-[(2S)-3-Hydroxy-3-methylbutan-2-yl]-3-oxo-2-(1,2-thiazol-4-yl)-6-[4-(trifluoromethoxy)phenyl]-2,3-dihydropyridazine-4-carboxamide] |
